Earlier results on one substance are cited in patent US20070053923A1, “Dna vaccine composition with enhanced immunogenicity” (priority 2003, published 2007).

The test system of this data set is immune cells. The note with it: via FPR and FPRL1, as reported.

On to WKYMVM-NH2, for which the “Activation of immune cells” value is “potent activator of immune cells”.
